Key:
[1] = target: T1, Human CD73 (amino acid residues 27-549) (Homo sapiens, UniProt P21589); experiment: CD73 enzymatic assay (luciferase-based indirect assay, CellTiter-Glo); type: biochemical; details: 0.4 nM CD73, 150 μM AMP, 1 hour at room temperature
T1 construct: Human CD73 (amino acid residues 27-549); His tag (N); made in house; host or cells: E. coli
T1 sequence (P21589 27-549): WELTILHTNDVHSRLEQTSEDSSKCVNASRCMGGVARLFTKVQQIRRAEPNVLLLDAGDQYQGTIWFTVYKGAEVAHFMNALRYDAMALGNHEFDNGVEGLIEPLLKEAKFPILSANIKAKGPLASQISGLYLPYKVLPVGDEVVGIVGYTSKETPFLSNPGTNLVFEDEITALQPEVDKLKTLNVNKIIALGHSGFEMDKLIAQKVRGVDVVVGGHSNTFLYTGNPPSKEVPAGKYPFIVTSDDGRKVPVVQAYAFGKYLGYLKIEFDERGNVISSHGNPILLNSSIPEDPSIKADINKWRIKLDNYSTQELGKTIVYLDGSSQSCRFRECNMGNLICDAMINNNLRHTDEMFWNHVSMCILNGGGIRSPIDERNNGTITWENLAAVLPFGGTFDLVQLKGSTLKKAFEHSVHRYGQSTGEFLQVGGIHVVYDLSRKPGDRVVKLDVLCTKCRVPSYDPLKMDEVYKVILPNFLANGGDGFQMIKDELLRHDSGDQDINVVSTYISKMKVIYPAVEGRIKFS
Protocol: CD73 enzymatic activity was measured in a luciferase-based indirect assay using CellTiter-Glo® system from Promega. The luciferase reaction in the presence of ATP is inhibited by AMP, a primary substrate of CD73. Addition of CD73 enzyme to the reaction converts AMP to adenosine, and release the inhibition, producing a luminescent signal. Inhibition of CD73 leads to the decrease of this luminescent signal.
Human CD73 (amino acid residues 27-549) with N-Terminal His tag was purified in E. coli. All the assay components were prepared in 50 mM HEPEs buffer (pH 7.4) with 0.01% Tween-20. The CD73 enzymatic assay was performed using 0.4 nM CD73 and 150 μM AMP. 9.5 μL of CD73 protein and 9.5 μL of AMP were added to the wells of a 384 well plate containing lpL of various concentrations of test compound or DMSO vehicle and incubated for 1 hour at room temperature. 16 wells containing CD73, AMP and 5% DMSO served as high control. 16 wells containing AMP and 5% DMSO served as low control. Enzymatic reaction was stopped and AMP level was measured indirectly by adding 5 μL of CellTiter-Glo® 2.0 reagent and 5 μL of ATP with a final concentration of 1 μM. Following incubation of the plate at room temperature for 30 minutes, luminescent signal was read on a Tecan plate reader. The percentage inhibition at individual concentrations relative to high and low controls was calculated. The data were analyzed by using nonlinear regression to generate IC50 values.

[2] = target: T2, human CD73 (Homo sapiens, UniProt P21589); experiment: Inhibitor activity against CD73 in cell based assay (CD73 expressing CHO-K1 cells); details: CHO-K1 cells expressing human CD73, 150 μM AMP, 4 hours of incubation; read-out: CHO-K1 CELL_VARIANT: CD73 IC50
T2 construct: expressed in transfected cells
T2 sequence (P21589 27-549): T1 sequence (P21589 27-549)
Protocol: Determine Inhibitor Activity Against CD73 in Cell Based Assay
CD73 expressing CHO-K1 cell clones were generated upon stable transfection of a plasmid expressing human CD73 under the control of CMV promoter. Cells were selected in Ham's F-12K (Kaighn's) media supplemented with 10% fetal bovine serum and 1 mg/ml G418 at 37° C. in a humidified incubator supplied with 5% CO2. The assays were performed as follows. Cells were seeded in a 96 well plate in 50 μL of culture media at a density of 1×10^4 per well. Compound at a maximal concentration of 5 mM was serially diluted 1:3 in DMSO for a total of 8 point titration. A 2 μL aliquot of each dilution point was added to […] culture media and 25 µL was added to each well, providing 10 μM compound at the maximum concentration point. AMP was diluted in culture media and 25 μL was added to each well with a final concentration of 150 μM. 4 wells containing 0.2% DMSO treated cells and AMP served as high controls and 4 wells containing media only with 0.2% DMSO and AMP served as low controls. After 4 hours of incubation, 20 μL of the supernatant was transferred to a 384 well plate. AMP level in supernatant was measured indirectly by adding 5 μL of CellTiter-Glo® 2.0 reagent and 5 μL of ATP with a final concentration of 1 μM. Following incubation of plate at room temperature for 30 minutes, luminescent signal was read on a Tecan plate reader. The percentage inhibition at individual concentrations relative to high and low controls was calculated. The data were analyzed by using nonlinear regression to generate ICso values.

Row | SMILES | IC50 [1] [µM] | IC50 [2] [µM]
1 | O=c1[nH]ncc(N2CC[C@@H](Oc3cc(C4CCN(CC(F)(F)F)CC4)ccn3)C2)c1Cl [P-0048, (R)-4-chloro-5-(3-((4-(1-(2,2,2-trifluoroethyl)piperidin-4-yl)pyridin-2-yl)oxy)pyrrolidin-1-yl)pyridazin-3(2H)-one] | 0.001 to 10 | 0.001 to 10
2 | Cc1nn(C)c(C)c1-c1cc(O[C@@H]2CCN(c3cn[nH]c(=O)c3Cl)C2)c(F)cn1 [P-0117, (R)-4-chloro-5-(3-((5-fluoro-2-(1,3,5-trimethyl-1H-pyrazol-4-yl)pyridin-4-yl)oxy)pyrrolidin-1-yl)pyridazin-3(2H)-one] | 0.001 to 10 | 0.001 to 10
3 | Cc1nn(CC2(C)COC2)c(C)c1-c1ccnc(O[C@@H]2CCN(c3cnn(CCO)c(=O)c3Cl)C2)c1 [P-0112, (R)-4-chloro-5-(3-((4-(3,5-dimethyl-1-((3-methyloxetan-3-yl)methyl)-1H-pyrazol-4-yl)pyridin-2-yl)oxy)pyrrolidin-1-yl)-2-(2-hydroxyethyl)pyridazin-3(2H)-one] | 0.001 to 10 | 0.001 to 10
4 | O=c1[nH]ncc(N2CC[C@@H](Oc3cc(C4CCCC4)ccn3)C2)c1Cl [P-0073, (R)-4-chloro-5-(3-((4-cyclopentylpyridin-2-yl)oxy)pyrrolidin-1-yl)pyridazin-3(2H)-one] | 0.001 to 10 | 0.001 to 10
5 | O=c1c(Cl)c(N2CC[C@@H](Oc3cc(C4CCNCC4)ccn3)C2)cnn1CCO [P-0023, (R)-4-chloro-2-(2-hydroxyethyl)-5-(3-((4-(piperidin-4-yl)pyridin-2-yl)oxy)pyrrolidin-1-yl)pyridazin-3(2H)-one] | 0.001 to 10 | 0.001 to 10
6 | Cc1nn(C2CCC2)c(C)c1-c1ccnc(O[C@@H]2CCN(c3cn[nH]c(=O)c3Cl)C2)c1 [P-0026, (R)-4-chloro-5-(3-((4-(1-cyclobutyl-3,5-dimethyl-1H-pyrazol-4-yl)pyridin-2-yl)oxy)pyrrolidin-1-yl)pyridazin-3(2H)-one] | 0.001 to 10 | 0.001 to 10
7 | O=c1[nH]ncc(N2CC[C@@H](Oc3cc(C4CCNCC4)ccn3)C2)c1Cl [P-0071, (R)-4-chloro-5-(3-((4-(piperidin-4-yl)pyridin-2-yl)oxy)pyrrolidin-1-yl)pyridazin-3(2H)-one] | 0.001 to 10 | 0.001 to 10
8 | O=c1[nH]ncc(N2CC[C@@H](Oc3cc(C4=CCNCC4)ccn3)C2)c1Cl [P-0075, (R)-4-chloro-5-(3-((1′,2′,3′,6′-tetrahydro-[4,4′-bipyridin]-2-yl)oxy)pyrrolidin-1-yl)pyridazin-3(2H)-one] | 0.001 to 10 | 0.001 to 10
9 | O=c1[nH]ncc(N2CC[C@@H](Oc3cc(C4CC5CCC(C4)N5)ccn3)C2)c1Cl (stereo partly drawn) [P-0012, 5-((3R)-3-((4-(8-azabicyclo[3.2.1]octan-3-yl)pyridin-2-yl)oxy)pyrrolidin-1-yl)-4-chloropyridazin-3(2H)-one] | 0.001 to 10 | 0.001 to 10
10 | O=C(O)C1CCC(c2ccnc(O[C@@H]3CCN(c4cn[nH]c(=O)c4Cl)C3)c2)CC1 (stereo partly drawn) [P-0047, (R)-4-(2-((1-(5-chloro-6-oxo-1,6-dihydropyridazin-4-yl)pyrrolidin-3-yl)oxy)pyridin-4-yl)cyclohexane-1-carboxylic acid] | 0.001 to 10 | 0.001 to 10

Continued, values first:

Row | IC50 [1] [µM] | IC50 [2] [µM] | SMILES
11 | 0.001 to 10 | 0.001 to 10 | Cc1nn(C)c(C)c1-c1ccnc(O[C@@H]2CCN(c3cnn(CCO)c(=O)c3Cl)C2)c1 [P-0143, (R)-4-chloro-2-(2-hydroxyethyl)-5-(3-((4-(1,3,5-trimethyl-1H-pyrazol-4-yl)pyridin-2-yl)oxy)pyrrolidin-1-yl)pyridazin-3(2H)-one]
12 | 0.001 to 10 | 0.001 to 10 | O=c1[nH]ncc(N2CC[C@@H](Oc3cc(-c4ccc(S(=O)(=O)NC5CC5)cc4F)ccn3)C2)c1Cl [P-0234, (R)-4-(2-((1-(5-chloro-6-oxo-1,6-dihydropyridazin-4-yl)pyrrolidin-3-yl)oxy)pyridin-4-yl)-N-cyclopropyl-3-fluorobenzenesulfonamide]
13 | 0.001 to 10 | 0.001 to 10 | Cc1nn(C)c(C)c1-c1cc(O[C@@H]2CCN(c3cn[nH]c(=O)c3Cl)C2)ncn1 [P-0181, (R)-4-chloro-5-(3-((6-(1,3,5-trimethyl-1H-pyrazol-4-yl)pyrimidin-4-yl)oxy)pyrrolidm-1-yl)pyridazin-3(2H)-one]
14 | 0.001 to 10 | 0.001 to 10 | O=C(Nc1ccc(-c2ccnc(O[C@@H]3CCN(c4cn[nH]c(=O)c4Cl)C3)c2)c(F)c1)c1ccccc1 [P-0214, (R)-N-(4-(2-((1-(5-chloro-6-oxo-1,6-dihydropyridazin-4-yl)pyrrolidin-3-yl)oxy)pyridin-4-yl)-3-fluorophenyl)benzamide]
15 | 0.001 to 10 | 10 to 100 | O=c1[nH]ncc(N2CC[C@@H](Oc3cc(-c4ccnc(O[C@@H]5CCN(c6cn[nH]c(=O)c6Cl)C5)c4)ccn3)C2)c1Cl [P-0215, 5,5′-((3R,3′R)-([4,4′-bipyridine]-2,2′-diylbis(oxy))bis(pyrrolidine-3,1-diyl))bis(4-chloropyridazin-3(2H)-one)]
16 | 0.001 to 10 | 0.001 to 10 | Cc1nn(C)c(C)c1-c1cncc(O[C@@H]2CCN(c3cn[nH]c(=O)c3Cl)C2)c1 [P-0168, (R)-4-chloro-5-(3-((5-(1,3,5-trimethyl-1H-pyrazol-4-yl)pyridin-3-yl)oxy)pyrrolidin-1-yl)pyridazin-3(2H)-one]
17 | 0.001 to 10 | 0.001 to 10 | Cc1c(-c2cccc(O[C@@H]3CCN(c4cn[nH]c(=O)c4Cl)C3)c2)cnn1C [P-0196, (R)-4-chloro-5-(3-(3-(1,5-dimethyl-1H-pyrazol-4-yl)phenoxy)pyrrolidin-1-yl)pyridazin-3(2H)-one]
18 | 0.001 to 10 | 0.001 to 10 | COc1cc(S(=O)(=O)NC2CC2)ccc1-c1ccnc(O[C@@H]2CCN(c3cn[nH]c(=O)c3Cl)C2)c1 [P-0227, (R)-4-(2-((1-(5-chloro-6-oxo-1,6-dihydropyridazin-4-yl)pyrrolidin-3-yl)oxy)pyridin-4-yl)-N-cyclopropyl-3-methoxybenzenesulfonamide]
19 | 0.001 to 10 | 0.001 to 10 | Cc1cc(S(=O)(=O)NC2CC2)cc(F)c1-c1ccnc(O[C@@H]2CCN(c3cn[nH]c(=O)c3Cl)C2)c1 [P-0224, (R)-4-(2-((1-(5-chloro-6-oxo-1,6-dihydropyridazin-4-yl)pyrrolidin-3-yl)oxy)pyridin-4-yl)-N-cyclopropyl-3-fluoro-5-methylbenzenesulfonamide]
20 | 0.001 to 10 | 0.001 to 10 | Cc1noc(C)c1-c1cc(O[C@H]2CN(c3cnn(CC(O)CO)c(=O)c3Cl)C[C@@H]2F)ncc1F (stereo partly drawn) [P-0129, 4-chloro-2-(2,3-dihydroxypropyl)-5-((3S,4S)-3-((4-(3,5-dimethylisoxazol-4-yl)-5-fluoropyridin-2-yl)oxy)-4-fluoropyrrolidin-1-yl)pyridazin-3(2H)-one]
21 | 0.001 to 10 | 0.001 to 10 | Cc1noc(C)c1-c1ccnc(O[C@H]2CN(c3cnn(CCO)c(=O)c3Cl)C[C@@H]2F)c1 [P-0177, 4-chloro-5-((3S,4S)-3-((4-(3,5-dimethylisoxazol-4-yl)pyridin-2-yl)oxy)-4-fluoropyrrolidin-1-yl)-2-(2-hydroxyethyl)pyridazin-3(2H)-one]

— patent publication US12202818B2, “Compounds and methods for CD73 modulation and indications therefor” (Opna Bio SA, priority 2020, dated 2025)
